# Experimental data: US9974726B2, “Gentle cleansing compositions with makeup removal properties” (L'OREAL, priority 2016, dated 2018)
# System: skin of an arm
# Experiment: Hydration Test (corneometer)
# Format: in vivo
# Conditions: n=10
# Experimental: Each of the compositions in the table below were individually applied to the skin of an arm (n=10) and then removed with a moist cotton pad. A corneometer was used to take initial measurements, and subsequent measurements at 1, 2, and 6 hour time points.
structure (smiles),measurement,setting,value
"CCCCCCCCCCCCOS(=O)(=O)[O-].[Na+] [5% sodium lauryl sulfate, sodium lauryl sulfate]","corneometer measurement, 1 hours","1 hour after application and removal with moist cotton pad, * = statistically significant",34.2
same,"corneometer measurement, 2 hours","2 hours after application and removal, * = statistically significant",33.5
same,"corneometer measurement, 6 hours","6 hours after application and removal, * = statistically significant",32.4
same,"corneometer measurement, 0 hours",initial measurement,30.7
